Laboratory results as given in PubChem BioAssay (NCI).
Several values for one entry are separate records, joined by “and”; a condition that tells them apart may be missing. Equal entries are not always repeated.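 Protocol summary: plate cells (96-well), add compound at 5 concentrations, incubate 48 h, interpolate endpoints linearly. GI50 = concentration required for 50% inhibition of growth. TGI denotes the concentration required for complete inhibition of growth.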

Assays:
Assay in all cases: inhibition of tumour cell growth, NCI panel, 48 h
CCRF-CEM leukemia = system: CCRF-CEM leukemia
COLO 205 colon = system: COLO 205 colon
DU-145 prostate = system: DU-145 prostate
HCC-2998 colon = system: HCC-2998 colon
HOP-62 NSCLC = system: HOP-62 NSCLC
HS 578T breast = system: HS 578T breast
MALME-3M melanoma = system: MALME-3M melanoma
UACC-257 melanoma = system: UACC-257 melanoma
UACC-62 melanoma = system: UACC-62 melanoma
ACHN renal = system: ACHN renal

Row | SMILES | GI50 (CCRF-CEM leukemia) [µM] | TGI (CCRF-CEM leukemia) | GI50 (COLO 205 colon) [µM] | TGI (COLO 205 colon) | GI50 (DU-145 prostate) [µM] | TGI (DU-145 prostate) | GI50 (HCC-2998 colon) [µM] | TGI (HCC-2998 colon) | GI50 (HOP-62 NSCLC) [µM] | TGI (HOP-62 NSCLC) | GI50 (HS 578T breast) [µM] | TGI (HS 578T breast) | GI50 (MALME-3M melanoma) [µM] | TGI (MALME-3M melanoma) [µM] | GI50 (UACC-257 melanoma) [µM] | TGI (UACC-257 melanoma) | GI50 (UACC-62 melanoma) [µM] | TGI (UACC-62 melanoma) | GI50 (ACHN renal) [µM] | TGI (ACHN renal)
1 | CSC1=C(N)C(=O)c2[nH]cc(CO)c2C1=N | 0.223 | 0.762 µM | 0.0755 | 0.222 µM | 0.166 | 0.308 µM | 0.173 | 0.338 µM | 0.193 | 0.342 µM | 0.282 | 0.796 µM | 0.0714 | 0.192 | 0.134 | 0.267 µM | 0.159 | 0.314 µM | – | –
2 | O=C(/C=C/Sc1cc(C(F)(F)F)cc(C(F)(F)F)c1)c1ccc(Cl)cc1 | 0.271 | 1.74 µM | 2.1 | 6.6 µM | 12.3 | 25.1 µM | 19.2 | 33.4 µM | 18.3 | 32.7 µM | 16.5 | 43.7 µM | 9.13 | 23.4 | 14.1 | 27.5 µM | 4.58 | 15.6 µM | 1.78 | 3.36 µM
3 | C=CCN=C(N/N=C/c1ccc([N+](=O)[O-])o1)NS(=O)(=O)c1cc(C(=O)Nc2ccc(Cl)cc2)c(Cl)cc1SC | 4.81 | > 100 µM | – | > 100 µM | 2.72 | > 35.2 µM | 2.29 | 5.96 µM | 1.8 | 7.32 µM | > 41.9 | > 100 µM | 5.08 | 63.4 | 4.28 | > 59.9 µM | 2.81 | > 27.7 µM | 3.55 | > 50.1 µM
4 | COc1ccc2c(c1)NC1=C(C(=O)OC1)C2c1cc(OC)c2c(c1)OCO2 (stereo not drawn) | < 0.0187 | > 100 µM | < 0.0135 | 0.0305 µM | 0.0218 | 0.066 µM | 0.0297 | – | 0.0225 | 70.8 µM | < 0.0189 | > 100 µM | > 100 | > 100 | – | > 100 µM | < 0.0156 | > 100 µM | 0.0567 | > 100 µM
5 | O=C1CCCCCCCCCCC1CN1CCCC1 (stereo not drawn) | – | > 100 µM | – | 51.9 µM | – | > 100 µM | – | 70.6 µM | – | 34.7 µM | – | 84.7 µM | – | > 100 | – | 49.3 µM | – | 36.7 µM | – | > 100 µM
6 | O=C1C(Nc2ccc(Cl)cc2)=C(I)C(=O)c2ncccc21 | 0.784 | 5.88 µM | 1.32 | 2.79 µM | 1.37 | 3.37 µM | 1.77 | 3.74 µM | 1.79 | 4.74 µM | 2.13 | 6.44 µM | 0.875 | 2.14 | 1.29 | 2.6 µM | 1.33 | 3.12 µM | 0.376 | 1.32 µM
7 | C[C@H]1CC[C@@]2(NC1)O[C@H]1C[C@H]3[C@@H]4CC[C@H]5C[C@@H](O)CC[C@]5(C)[C@H]4CC[C@]3(C)[C@H]1[C@@H]2C | 18.3 | 50 µM and > 100 µM | 33.3 | 50 µM and > 100 µM | 30.3 | 50 µM and > 100 µM | 9.32 | 22 µM and > 100 µM | 9.72 | 19.4 µM and > 100 µM | 21.8 | 50 µM and > 100 µM | 11.2 | 31.5 | 22 | 50 µM and > 100 µM | 9.42 | 17 µM and > 100 µM | 11.2 | 21.9 µM and > 100 µM
8 | COc1cc(OC)c(C/C=C/c2ccccc2)cc1O | – | 51.6 µM | – | 50.7 µM | – | 31.5 µM | – | 29.8 µM | – | – | – | 47.3 µM | – | 30.5 | – | 55.6 µM | – | 29 µM | – | 72.3 µM
9 | N#C/C(=C\c1ccsc1)c1nc2ccccc2o1 | – | 26.3 µM | 39 | > 100 µM | 84.6 | > 100 µM | > 100 | > 100 µM | – | – | 26 | 92.9 µM | 45.2 | > 100 | > 100 | > 100 µM | 61.6 | > 100 µM | 45.2 | > 100 µM
10 | CC[C@@]1(O)C(=O)OCc2c1cc1n(c2=O)Cc2cc3cc4c(cc3nc2-1)OCO4 | – | 0.0152 µM and < 0.0414 µM | < 0.0341 | 0.71 µM | – | 0.00572 µM | – | 0.208 µM | – | – | > 100 | > 100 µM | < 0.0144 | – | – | 0.345 µM and 0.259 µM | – | 0.00717 µM | – | –
11 | Nc1ncnc2c1N=C(c1ccc3c(c1)OCO3)CC(c1ccc([N+](=O)[O-])cc1)N2 (stereo not drawn) | – | – | 92 | > 100 µM | 46.3 | > 100 µM | 66.1 | > 100 µM | 67.6 | > 100 µM | 9.18 | > 100 µM | 61.1 | > 100 | > 100 | > 100 µM | 76.9 | > 100 µM | 29.1 | > 100 µM
12 | CN1CCN(C(=O)C(C)(C)c2ccc(C(=O)Nc3cn4cc(-c5ccncc5)ccc4n3)cc2)CC1 | 0.28 | > 100 µM | 0.289 | – | 0.319 | 35.2 µM | 0.502 | 9.7 µM | 0.307 | > 53 µM | 0.327 | 3.66 µM | 0.26 | 0.773 | 0.296 | 15.1 µM | – | – | 0.238 | 1.48 µM
13 | C=C1C(O)C2C(=C(CC)C13CC3)C(=O)C(C)(C)C2OC (stereo not drawn) | 27.5 | > 100 µM | > 100 | > 100 µM | 57.9 | > 100 µM | – | – | 90.8 | > 100 µM | > 100 | > 100 µM | > 100 | > 100 | 35.6 | > 100 µM | 84.9 | > 100 µM | 67.8 | > 100 µM
14 | NC(=O)N/N=C1/CCC(O)CC1CC(=O)O (stereo not drawn) | – | > 100 µM | – | > 100 µM | – | > 100 µM | – | – | – | > 100 µM | – | > 100 µM | – | > 100 | – | > 100 µM | – | > 100 µM | – | > 100 µM
